Laboratory results as given in ChEMBL document CHEMBL5260848, “Recent advancements in the development of bioactive pyrazoline derivatives” (Eur J Med Chem, 2020).
Converted amounts (≈) assume the structure as drawn.

What was measured:
[1] = tested on: RAW264.7; experiment: Cytotoxicity against mouse RAW264.7 cells relative to control; type: functional
[2] = tested on: RAW264.7; experiment: Antiinflammatory activity in LPS-induced mouse RAW264.7 cells assessed as inhibition of LPS induced NO production; type: functional, cell-based
[3] = tested on: Rattus norvegicus; experiment: Antiinflammatory activity in carrageenan induced rat paw edema model assessed inhibition of TNF-alpha level; type: functional, organism-based
[4] = tested on: Huh-7; experiment: Cytotoxicity against human Huh-7 cells; type: functional, cell-based
[5] = tested on: HepG2; experiment: Cytotoxicity against human HepG2 cells; type: functional, cell-based
[6] = tested on: HepG2; experiment: cells; details: Homo sapiens
[7] = tested on: Ca9-22; experiment: Cytotoxicity against human Ca9-22 cells assessed as reduction in cell viability incubated for 48 hrs by MTT assay; type: functional
[8] = tested on: MCF7; experiment: cells; details: Homo sapiens
[9] = Cytotoxicity against human HPC cells assessed as reduction in cell viability incubated for 48 hrs by MTT assay; type: functional
[10] = Cytotoxicity against human HPLF cells assessed as reduction in cell viability incubated for 48 hrs by MTT assay; type: functional
[11] = tested on: HSC-2; experiment: Cytotoxicity against human HSC-2 cells assessed as reduction in cell viability incubated for 48 hrs by MTT assay; type: functional
[12] = Cytotoxicity against human HGF cells assessed as reduction in cell viability incubated for 48 hrs by MTT assay; type: functional
[13] = tested on: HSC-3; experiment: Cytotoxicity against human HSC-3 cells assessed as reduction in cell viability incubated for 48 hrs by MTT assay; type: functional
[14] = tested on: Pseudomonas aeruginosa; experiment: Antibacterial activity against Pseudomonas aeruginosa assessed as inhibition of bacterial growth; type: functional
[15] = tested on: Staphylococcus aureus; experiment: microbe, parasite or virus in culture
[16] = tested on: Escherichia coli; experiment: Antibacterial activity against Escherichia coli assessed as inhibition of bacterial growth; type: functional
[17] = tested on: Bacillus subtilis; experiment: microbe, parasite or virus in culture
[18] = tested on: Pseudomonas aeruginosa; experiment: microbe, parasite or virus in culture
[19] = tested on: Escherichia coli; experiment: microbe, parasite or virus in culture
[20] = tested on: Staphylococcus aureus; experiment: Antibacterial activity against Staphylococcus aureus; type: functional
[21] = tested on: Rhizopus arrhizus; experiment: Antifungal activity against Rhizopus oryzae; type: functional
[22] = tested on: Rattus norvegicus; experiment: Antiinflammatory activity in carrageenan induced rat paw edema model relative to indomethacin; type: functional
[23] = tested on: A549; experiment: Cytotoxicity against human A549 cells assessed as reduction in cell viability; type: functional, cell-based
[24] = tested on: Staphylococcus epidermidis; experiment: Antibacterial activity against Staphylococcus epidermidis ATCC 12228 by plate dilution method; type: functional
[25] = tested on: Staphylococcus aureus; experiment: Antibacterial activity against Staphylococcus aureus ATCC 25923 by plate dilution method; type: functional
[26] = tested on: Bordetella bronchiseptica; experiment: Antibacterial activity against Bordetella bronchiseptica ATCC 4617 by plate dilution method; type: functional
[27] = tested on: Proteus vulgaris; experiment: Antibacterial activity against Proteus vulgaris ATCC 9920 by plate dilution method; type: functional
[28] = tested on: Pseudomonas aeruginosa; experiment: Antibacterial activity against Pseudomonas aeruginosa ATCC 27853 by plate dilution method; type: functional
[29] = tested on: Bacillus subtilis; experiment: Antibacterial activity against Bacillus subtilis ATCC 6633 by plate dilution method; type: functional
[30] = tested on: Escherichia coli; experiment: Antibacterial activity against Escherichia coli ATCC 25922 by plate dilution method; type: functional
[31] = tested on: Enterococcus faecalis; experiment: Antibacterial activity against Enterococcus faecalis ATCC 29212 by plate dilution method; type: functional
[32] = tested on: Bacillus cereus; experiment: Antibacterial activity against Bacillus cereus ATCC 9946 by plate dilution method; type: functional
[33] = tested on: Klebsiella pneumoniae; experiment: Antibacterial activity against Klebsiella pneumoniae ATCC 700603 by plate dilution method; type: functional
[34] = tested on: Aspergillus niger; experiment: Antifungal activity against Aspergillus niger incubated for 24 hrs by disc diffusion method; type: functional
[35] = tested on: Bacillus subtilis; experiment: microbe, parasite or virus in culture; details: 24 h
[36] = tested on: Staphylococcus aureus; experiment: microbe, parasite or virus in culture; remark: listed apart in the source
[37] = tested on: Aspergillus flavus; experiment: Antifungal activity against Aspergillus flavus incubated for 24 hrs by disc diffusion method; type: functional
[38] = tested on: Pseudomonas aeruginosa; experiment: microbe, parasite or virus in culture; details: 24 h
[39] = tested on: Candida albicans; experiment: microbe, parasite or virus in culture
[40] = tested on: Staphylococcus aureus; experiment: microbe, parasite or virus in culture; details: 24 h
[41] = tested on: Candida albicans; experiment: microbe, parasite or virus in culture; details: 24 h
[42] = tested on: Escherichia coli; experiment: Antibacterial activity against Escherichia coli incubated for 24 hrs by disc diffusion method; type: functional
[43] = tested on: Aspergillus fumigatus; experiment: Antifungal activity against Aspergillus fumigatus incubated for 24 hrs by disc diffusion method; type: functional
[44] = tested on: HepG2; experiment: Cytotoxicity against human HepG2 cells assessed as growth inhibition; type: functional, cell-based
[45] = tested on: HepG2; experiment: Cytotoxicity against human HepG2 cells assessed as reduction in cell viability; type: functional, cell-based
[46] = tested on: HeLa; experiment: Cytotoxicity against human HeLa cells assessed as reduction in cell viability; type: functional, cell-based
[47] = tested on: Staphylococcus aureus; experiment: microbe, parasite or virus in culture; remark: listed apart in the source
[48] = tested on: Escherichia coli; experiment: microbe, parasite or virus in culture; remark: listed apart in the source
[49] = tested on: DU-145; experiment: Cytotoxicity against human DU-145 cells by SRB assay; type: functional
[50] = molecular target: Tubulin (Homo sapiens) (UniProt P68371+Q9H4B7+P0DPH7+P68366+Q13509+Q71U36+P04350+Q3ZCM7+P07437+P68363+Q9BQE3+Q6PEY2+Q13885+Q9BVA1+Q9BUF5); experiment: Inhibition of tubulin polymerization (unknown origin) by fluorescence assay relative to control; type: protein-complex assay; details: concentration not given here
[51] = tested on: Plasmodium berghei; experiment: Antimalarial activity against Plasmodium berghei infected in mouse assessed as suppression percentage at 48.46 umol/kg administered daily relative to control; type: functional; details: dose 48.46 µmol/kg

With `C[C@]12CC[C@H]3[C@@H](CC=C4C[C@@H](O)CC[C@@]43C)[C@@H]1CC[C@@H]2C1=NN(C(N)=S)C(c2cccc(F)c2)C1` (stereo partly drawn) as the compound, how does the Activity [1] read?
The Activity was >90%.

What about the IC50 [2] of the same compound?
The IC50 was 1.02 µM.

For `COc1cc(/C=C/C(=O)CC(=O)/C=C/c2ccc(O)c(OC)c2)ccc1O` [CURCUMIN], which IC50 [3] is on record?
Its IC50 is 0.0534 µM.

For `N#Cc1c(-c2ccc(F)cc2)nc(N2N=C(c3c4ccccc4cc4ccccc34)CC2c2ccc(F)cc2)[nH]c1=O` (stereo not drawn), which IC50 [4] is on record?
Its IC50 is 6.13 mg/L (≈ 11.1 µM).

And the IC50 [5]?
The IC50 was 5.34 mg/L (≈ 9.65 µM).

For `O=c1[nH]cc(F)c(=O)[nH]1` [FLUOROURACIL], which IC50 [6] is on record?
The IC50 was 33.5 mg/L (≈ 258 µM).

What about the CC50 [7] of the same compound?
The CC50 was 13 µM.

What about the IC50 [8] of the same compound?
Its IC50 is 30 mg/L (≈ 231 µM).

And the CC50 [9]?
The CC50 was 13 µM.

And the CC50 [10]?
The CC50 was 13 µM.

What about the CC50 [11] of the same compound?
Its CC50 is 13 µM.

And the CC50 [12]?
Its CC50 is 13 µM.

And the CC50 [13]?
Its CC50 is 13 µM.

Which MIC [14] does the source give for `NC[C@H]1O[C@H](O[C@H]2[C@H](O)[C@@H](O[C@H]3O[C@H](CO)[C@@H](O)[C@H](N)[C@H]3O)[C@H](N)C[C@@H]2N)[C@H](N)[C@@H](O)[C@@H]1O` [BEKANAMYCIN] here?
Its MIC is 1.56 mg/L (≈ 3.23 µM).

What about the MIC [15] of the same compound?
The MIC was 1.56 mg/L (≈ 3.23 µM).

And the MIC [16]?
The MIC was 1.56 mg/L (≈ 3.23 µM).

And the MIC [17]?
The MIC was 1.56 mg/L (≈ 3.23 µM).

For `O=C(c1ccncc1)N1N=C(c2ccc(Cl)cc2)CC1c1cc2ccccc2nc1Cl` (stereo not drawn), which MIC [18] is on record?
Its MIC is 12.5 mg/L (≈ 27.9 µM).

And the MIC [19]?
The MIC was 12.5 mg/L (≈ 27.9 µM).

Which results are given for `COc1ccc(C2CC(c3cc4ccccc4oc3=O)=NN2c2ccccc2)cc1OC` (stereo not drawn)?
MIC [20]: 12.5 mg/L (≈ 29.3 µM); MIC [21]: 12.5 mg/L (≈ 29.3 µM)

Which Activity [22] does the source give for `COc1ccc(N2N=C(/C=C/c3ccc(C)o3)CC2c2ccc(C)o2)cc1` (stereo not drawn) here?
The Activity was 104%.

With `Cc1ccc(/C=C/C2=NN(C(N)=O)C(c3ccc(C)s3)C2)s1` (stereo not drawn) as the compound, how does the Activity [22] read?
The Activity was 103%.

With `COc1cc(C2CC(c3ccc(Cl)cc3)=NN2C(N)=S)cc(Br)c1O` (stereo not drawn) as the compound, how does the IC50 [23] read?
The IC50 was 44.1 µM.

What does the source list for `CC1(C)S[C@@H]2[C@H](NC(=O)Cc3ccccc3)C(=O)N2[C@H]1C(=O)O` [PENICILLIN G]?
MIC [14]: 3.12 mg/L (≈ 9.35 µM); MIC [15]: 0.39 mg/L (≈ 1.17 µM); MIC [16]: 3.12 mg/L (≈ 9.35 µM); MIC [17]: 0.39 mg/L (≈ 1.17 µM)

With `COc1cc(C2CC(c3c4ccccc4cc4ccccc34)=NN2c2nc(-c3ccc(F)cc3)c(C#N)c(=O)[nH]2)cc(OC)c1OC` (stereo not drawn) as the compound, how does the IC50 [4] read?
Its IC50 is 4.78 mg/L (≈ 7.64 µM).

Which MIC [24] does the source give for `O=c1oc2ccc(F)cc2cc1-c1csc(N2N=C(c3cccc(F)c3)CC2c2cc3ccccc3nc2Cl)n1` (stereo not drawn) here?
Its MIC is 50 mg/L (≈ 87.6 µM).

And the MIC [25]?
The MIC was 50 mg/L (≈ 87.6 µM).

What about the MIC [26] of the same compound?
Its MIC is 50 mg/L (≈ 87.6 µM).

What about the MIC [27] of the same compound?
Its MIC is 50 mg/L (≈ 87.6 µM).

And the MIC [28]?
The MIC was 50 mg/L (≈ 87.6 µM).

And the MIC [29]?
Its MIC is 50 mg/L (≈ 87.6 µM).

What about the MIC [30] of the same compound?
The MIC was 50 mg/L (≈ 87.6 µM).

What about the MIC [31] of the same compound?
Its MIC is 50 mg/L (≈ 87.6 µM).

And the MIC [32]?
The MIC was 50 mg/L (≈ 87.6 µM).

What about the MIC [33] of the same compound?
Its MIC is 50 mg/L (≈ 87.6 µM).

For `OC(Cn1cncn1)(Cn1cncn1)c1ccc(F)cc1F` [FLUCONAZOLE], which MIC [34] is on record?
The MIC was 30 mg/L (≈ 98 µM).

And the MIC [35]?
Its MIC is 30 mg/L (≈ 98 µM).

What about the MIC [36] of the same compound?
Its MIC is < 10 mg/L.

What about the MIC [37] of the same compound?
Its MIC is 30 mg/L (≈ 98 µM).

And the MIC [38]?
Its MIC is 30 mg/L (≈ 98 µM).

What about the MIC [39] of the same compound?
Its MIC is < 10 mg/L.

What about the MIC [40] of the same compound?
The MIC was 30 mg/L (≈ 98 µM).

And the MIC [41]?
The MIC was 30 mg/L (≈ 98 µM).

And the MIC [42]?
Its MIC is 30 mg/L (≈ 98 µM).

And the MIC [43]?
Its MIC is 30 mg/L (≈ 98 µM).

With `Fc1ccc(-c2csc(N3N=C(c4cccs4)CC3c3ccc(Cl)cc3Cl)n2)cc1` (stereo not drawn) as the compound, how does the IC50 [44] read?
Its IC50 is 1.7 µM.

Which IC50 [45] does the source give for `COc1cc(C2CC(c3ccc(Cl)cc3)=NN2C(N)=S)cc(OC)c1OC` (stereo not drawn) here?
Its IC50 is 16 µM.

And the IC50 [46]?
Its IC50 is 9.37 µM.

What does the source list for `CC(=O)N1N=C(c2ccc(Br)cc2)CC1c1cc(Cl)ccc1Oc1c([N+](=O)[O-])cc(C(F)(F)F)cc1[N+](=O)[O-]` (stereo not drawn)?
MIC [14]: 0.39 mg/L (≈ 0.621 µM); MIC [15]: 3.12 mg/L (≈ 4.98 µM); MIC [16]: 0.39 mg/L (≈ 0.621 µM); MIC [17]: 3.12 mg/L (≈ 4.98 µM)

With `COC(=O)C1N=NN(CC(=O)N2N=C(c3ccccc3)CC2c2cccs2)C1C(=O)OC` (stereo not drawn) as the compound, how does the MIC [47] read?
Its MIC is 3.9 mg/L (≈ 8.56 µM).

What about the MIC [48] of the same compound?
The MIC was 3.9 mg/L (≈ 8.56 µM).

Which results are given for `COc1ccc(/C=C/C(=O)c2cc(OC)c(OC)c(OC)c2)cc1OCc1cn(Cc2ccc(F)cc2)nn1`?
GI50 [49]: 1.3 µM; inhibition [50]: 51%

For `COc1ccc(/C=C/C(=O)c2cc(OC)c(OC)c(OC)c2)cc1OCc1cn(Cc2ccc(N)cc2)nn1`, which GI50 [49] is on record?
Its GI50 is 1.5 µM.

What about the inhibition [50] of the same compound?
The inhibition was 36%.

With `CCC(=O)N1N=C(c2ccccc2)CC1c1cn(-c2ccccc2)nc1-c1ccc(C)cc1` (stereo not drawn) as the compound, how does the Activity [51] read?
Its Activity is 45.52%.
